Source: patent US20250136578A1 (Kolm Therapeutics Inc., priority 2023, published 2025)
Where two headings read alike, the source gives them in different places.

Legend:
VCaP cells = assay: VCaP growth inhibition assay (CTG); type: cell-based; settings: Homo sapiens, 216 h, 30 pM R1881, 9 days
Procedure, shortened: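 VCaP cells in phenol red-free DMEM with 5% charcoal-stripped serum were stimulated with 30 pM R1881 (final) and treated with compound from 100 nM to 10 fM final (1:5 dilutions) for 9 days at 37 °C. Viability was read by CellTiter-Glo luminescence, and IC50 came from 4-parameter logistic fits.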

AR / CBP ternary complex = AR / CBP ternary complex (Homo sapiens, UniProt P10275+Q92793); assay: Ternary complex formation assay (sandwich ELISA, AR capture, CBP antibody detection) in VCaP cell lysates; type: cell-based
Chain of AR / CBP ternary complex (P10275 whole entry): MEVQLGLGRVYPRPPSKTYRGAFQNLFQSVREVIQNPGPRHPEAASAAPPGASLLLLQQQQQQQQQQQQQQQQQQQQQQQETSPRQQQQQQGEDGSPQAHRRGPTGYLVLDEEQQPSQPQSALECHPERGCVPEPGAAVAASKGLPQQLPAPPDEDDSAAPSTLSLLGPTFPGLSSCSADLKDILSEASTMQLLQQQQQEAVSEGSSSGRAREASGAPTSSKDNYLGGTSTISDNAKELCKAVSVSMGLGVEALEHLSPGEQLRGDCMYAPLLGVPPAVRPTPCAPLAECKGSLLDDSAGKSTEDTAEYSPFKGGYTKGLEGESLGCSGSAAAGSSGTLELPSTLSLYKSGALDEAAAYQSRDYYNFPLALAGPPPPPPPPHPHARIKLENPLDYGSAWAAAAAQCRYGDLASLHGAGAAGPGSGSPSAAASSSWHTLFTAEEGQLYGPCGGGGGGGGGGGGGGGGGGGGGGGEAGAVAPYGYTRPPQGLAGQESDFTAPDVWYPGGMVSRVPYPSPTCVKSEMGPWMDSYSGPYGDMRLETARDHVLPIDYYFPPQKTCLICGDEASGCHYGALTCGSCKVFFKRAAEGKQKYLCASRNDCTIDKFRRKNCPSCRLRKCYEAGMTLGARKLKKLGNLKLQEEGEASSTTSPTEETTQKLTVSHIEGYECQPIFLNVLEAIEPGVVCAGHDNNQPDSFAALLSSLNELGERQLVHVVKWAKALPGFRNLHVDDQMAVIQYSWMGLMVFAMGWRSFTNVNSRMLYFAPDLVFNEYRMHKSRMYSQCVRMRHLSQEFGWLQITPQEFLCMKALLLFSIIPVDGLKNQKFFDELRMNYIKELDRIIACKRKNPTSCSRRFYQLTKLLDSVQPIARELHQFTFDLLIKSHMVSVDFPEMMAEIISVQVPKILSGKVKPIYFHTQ
Chain of AR / CBP ternary complex (Q92793 2-2442): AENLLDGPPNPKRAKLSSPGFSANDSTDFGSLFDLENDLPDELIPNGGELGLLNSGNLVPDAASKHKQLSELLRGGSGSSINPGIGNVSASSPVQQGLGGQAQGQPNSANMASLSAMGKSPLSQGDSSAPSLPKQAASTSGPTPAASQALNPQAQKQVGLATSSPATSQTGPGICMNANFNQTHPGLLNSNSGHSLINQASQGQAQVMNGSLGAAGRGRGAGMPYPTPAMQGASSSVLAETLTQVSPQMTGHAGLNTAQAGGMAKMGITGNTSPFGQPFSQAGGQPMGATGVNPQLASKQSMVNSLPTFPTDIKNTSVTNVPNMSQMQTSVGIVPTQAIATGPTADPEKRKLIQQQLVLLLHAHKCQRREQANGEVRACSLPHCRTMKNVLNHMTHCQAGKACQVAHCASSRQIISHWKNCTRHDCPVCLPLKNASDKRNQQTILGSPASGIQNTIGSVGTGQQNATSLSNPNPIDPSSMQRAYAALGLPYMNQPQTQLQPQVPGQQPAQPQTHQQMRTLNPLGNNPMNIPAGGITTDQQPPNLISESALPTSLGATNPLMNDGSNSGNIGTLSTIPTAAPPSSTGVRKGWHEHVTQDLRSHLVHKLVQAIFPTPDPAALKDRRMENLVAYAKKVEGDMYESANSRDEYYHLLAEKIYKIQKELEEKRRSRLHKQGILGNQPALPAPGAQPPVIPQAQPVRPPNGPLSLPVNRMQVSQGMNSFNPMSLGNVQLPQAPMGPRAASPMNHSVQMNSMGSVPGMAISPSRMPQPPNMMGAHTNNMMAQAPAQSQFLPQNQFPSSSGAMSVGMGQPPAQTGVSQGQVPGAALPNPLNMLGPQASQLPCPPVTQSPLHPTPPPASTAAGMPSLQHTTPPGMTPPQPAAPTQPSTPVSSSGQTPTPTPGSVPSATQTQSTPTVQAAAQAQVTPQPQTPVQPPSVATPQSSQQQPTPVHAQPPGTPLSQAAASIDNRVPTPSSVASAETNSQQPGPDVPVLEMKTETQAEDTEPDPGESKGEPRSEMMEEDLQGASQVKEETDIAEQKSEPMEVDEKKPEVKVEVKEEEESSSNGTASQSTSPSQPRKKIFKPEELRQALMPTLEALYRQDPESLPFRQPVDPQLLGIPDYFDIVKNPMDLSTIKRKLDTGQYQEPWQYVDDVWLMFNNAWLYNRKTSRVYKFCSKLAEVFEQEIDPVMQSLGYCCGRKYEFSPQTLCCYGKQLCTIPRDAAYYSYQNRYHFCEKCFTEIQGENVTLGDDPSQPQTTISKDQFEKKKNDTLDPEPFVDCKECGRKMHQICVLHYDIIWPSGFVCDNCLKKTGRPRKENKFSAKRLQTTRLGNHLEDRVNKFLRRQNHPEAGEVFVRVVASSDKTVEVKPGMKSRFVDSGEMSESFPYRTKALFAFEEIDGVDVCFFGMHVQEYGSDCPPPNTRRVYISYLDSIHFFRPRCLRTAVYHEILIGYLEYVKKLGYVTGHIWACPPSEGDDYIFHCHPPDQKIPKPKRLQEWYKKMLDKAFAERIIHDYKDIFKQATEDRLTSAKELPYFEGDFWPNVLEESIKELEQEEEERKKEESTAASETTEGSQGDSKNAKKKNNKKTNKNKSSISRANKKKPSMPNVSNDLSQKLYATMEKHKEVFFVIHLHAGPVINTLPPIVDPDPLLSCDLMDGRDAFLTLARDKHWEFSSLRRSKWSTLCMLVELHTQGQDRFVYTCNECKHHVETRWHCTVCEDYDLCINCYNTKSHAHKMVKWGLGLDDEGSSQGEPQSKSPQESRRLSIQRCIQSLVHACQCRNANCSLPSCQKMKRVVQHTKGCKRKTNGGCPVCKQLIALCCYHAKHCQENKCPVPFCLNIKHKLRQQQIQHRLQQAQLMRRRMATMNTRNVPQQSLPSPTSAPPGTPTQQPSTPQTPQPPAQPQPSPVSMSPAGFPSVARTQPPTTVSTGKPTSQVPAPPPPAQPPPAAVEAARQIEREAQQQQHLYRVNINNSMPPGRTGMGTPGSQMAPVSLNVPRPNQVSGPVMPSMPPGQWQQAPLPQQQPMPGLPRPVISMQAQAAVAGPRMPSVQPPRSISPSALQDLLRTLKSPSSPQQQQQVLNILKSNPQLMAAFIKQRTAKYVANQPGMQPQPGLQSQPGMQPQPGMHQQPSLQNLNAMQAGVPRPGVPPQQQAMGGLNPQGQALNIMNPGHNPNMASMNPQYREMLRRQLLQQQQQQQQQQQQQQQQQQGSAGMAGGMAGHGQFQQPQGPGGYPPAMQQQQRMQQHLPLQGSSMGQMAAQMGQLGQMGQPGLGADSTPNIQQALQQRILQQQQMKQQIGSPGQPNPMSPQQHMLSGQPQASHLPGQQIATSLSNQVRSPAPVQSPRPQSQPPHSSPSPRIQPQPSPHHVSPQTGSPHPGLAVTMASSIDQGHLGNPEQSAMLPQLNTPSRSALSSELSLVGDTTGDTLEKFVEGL
Procedure, shortened: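 VCaP cells in 5% charcoal-stripped FBS were cultured ≥3 days and then given bifunctional compound for 1.5 h. Lysates went onto AR-antibody-coated plates. Bound CBP (or p300) was detected with a rabbit antibody plus HRP anti-rabbit, using QuantaRed chemifluorescence (ex 570/em 585) read immediately, at 5 min and at 15 min.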

[1] = treated 1.5 hours, rabbit CBP or p300 antibody detection, average, read-out: Average Ternary Complex
[2] = read-out: Average Ternary Complex, treated 1.5 hours, rabbit CBP or p300 antibody detection

Row | IC50 (VCaP cells) | EC50 (AR / CBP ternary complex; [1]) | SMILES | EC50 (AR / CBP ternary complex; [2])
1 | 1 to 100 nM | < 1 nM | Cn1c(=O)sc2ccc(N3CCCc4cc(-c5ccc(CCC6CCN(c7ccc(C(=O)N[C@H]8CC[C@H](Oc9ccc(C#N)c(Cl)c9)CC8)nn7)CC6)nc5)ncc43)cc21 [Compound 57, N-[4-(3-chloro-4-cyano-phenoxy)cyclohexyl]-6-[4-[2-[5-[1-(3-methyl-2-oxo-1,3-benzothiazol-5-yl)-3,4-dihydro-2H-1,7-naphthyridin-6-yl]-2-pyridyl]ethyl]-1-piperidyl]pyridazine-3-carboxamide] | 
2 | 0.1 to 1 nM | > 100 nM | Cc1cc2c(N3CCN(C)c4cc(-c5cnn(C)c5)c(C#N)cc43)cc(OCC3CCN(c4ccc(C(=O)N[C@H]5CC[C@H](Oc6ccc(C#N)c(Cl)c6)CC5)nn4)CC3)cc2n(C)c1=O [Compound 37, N-[4-(3-chloro-4-cyano-phenoxy)cyclohexyl]-6-[4-[[5-[7-cyano-4-methyl-6-(1-methylpyrazol-4-yl)-2,3-dihydroquinoxalin-1-yl]-1,3-dimethyl-2-oxo-7-quinolyl]oxymethyl]-1-piperidyl]pyridazine-3-carboxamide] | 
3 | 0.1 to 1 nM | > 100 nM | Cc1cc2c(N3CCN(C)c4cc(-c5cnn(C)c5)c(C#N)cc43)cc(OC3CCN(c4ccc(C(=O)N[C@H]5CC[C@H](Oc6ccc(C#N)c(Cl)c6)CC5)nn4)CC3)cc2n(C)c1=O [Compound 35, N-[4-(3-chloro-4-cyano-phenoxy)cyclohexyl]-6-[4-[[5-[7-cyano-4-methyl-6-(1-methylpyrazol-4-yl)-2,3-dihydroquinoxalin-1-yl]-1,3-dimethyl-2-oxo-7-quinolyl]oxy]-1-piperidyl]pyridazine-3-carboxamide] | 
4 | 0.1 to 1 nM | > 100 nM | Cc1cc2c(N3CCN(C)c4cc(-c5cnn(C)c5)c(C#N)cc43)cc(OCCC3CCN(c4ccc(C(=O)N[C@H]5CC[C@H](Oc6ccc(C#N)c(Cl)c6)CC5)nn4)CC3)cc2n(C)c1=O [Compound 38, N-[4-(3-chloro-4-cyano-phenoxy)cyclohexyl]-6-[4-[2-[[5-[7-cyano-4-methyl-6-(1-methylpyrazol-4-yl)-2,3-dihydroquinoxalin-1-yl]-1,3-dimethyl-2-oxo-7-quinolyl]oxy]ethyl]-1-piperidyl]pyridazine-3-carboxamide] | 
5 | 0.1 to 1 nM | 1 to 10 nM | CC(=O)N1CCc2c(c(N3CCCc4ccc(C(F)F)cc43)nn2C2CC3(C2)CN(C(=O)C2CC4(C2)CN(c2ccc(C(=O)N[C@H]5CC[C@H](Oc6ccc(C#N)c(Cl)c6)CC5)nn2)C4)C3)C1 (stereo partly drawn) [Compound 42, 6-[6-[6-[5-acetyl-3-[7-(difluoromethyl)-3,4-dihydro-2H-quinolin-1-yl]-6,7-dihydro-4H-pyrazolo[4,3-c]pyridin-1-yl]-2-azaspiro[3.3]heptane-2-carbonyl]-2-azaspiro[3.3]heptan-2-yl]-N-[4-(3-chloro-4-cyano-phenoxy)cyclohexyl]pyridazine-3-carboxamide] | 
6 | ≤ 0.1 nM | < 1 nM | CC(=O)N1CCc2c(c(N3CCCc4cc(-c5cnn(C)c5)c(C(F)F)cc43)nn2C2CCN(CC3CCN(c4ccc(C(=O)N[C@H]5CC[C@H](Oc6ccc(C#N)c(Cl)c6)CC5)nn4)CC3(C)C)CC2)C1 (stereo partly drawn) [Compound 230, 6-[4-[[4-[5-acetyl-3-[7-(difluoromethyl)-6-(1-methylpyrazol-4-yl)-3,4-dihydro-2H-quinolin-1-yl]-6,7-dihydro-4H-pyrazolo[4,3-c]pyridin-1-yl]-1-piperidyl]methyl]-3,3-dimethyl-1-piperidyl]-N-[4-(3-chloro-4-cyano-phenoxy)cyclohexyl]pyridazine-3-carboxamide] | 
7 | ≤ 0.1 nM | < 1 nM | CC(=O)N1CCc2c(c(N3CCCc4cc(-c5cnn(C)c5)c(C(F)F)cc43)nn2C2CCN(C[C@H]3[C@H](C)CN(c4ccc(C(=O)N[C@H]5CC[C@H](Oc6ccc(C#N)c(C)c6)CC5)nn4)C[C@@H]3C)CC2)C1 [Compound 289, 6-[4-[[4-[5-acetyl-3-[7-(difluoromethyl)-6-(1-methylpyrazol-4-yl)-3,4-dihydro-2H-quinolin-1-yl]-6,7-dihydro-4H-pyrazolo[4,3-c]pyridin-1-yl]-1-piperidyl]methyl]-3,5-dimethyl-1-piperidyl]-N-[4-(4-cyano-3-methyl-phenoxy)cyclohexyl]pyridazine-3-carboxamide] | 
8 | > 100 nM | > 100 nM | CN1C(=O)CCc2cc(N3CCCc4cc(-c5ccc(CCC6CCN(c7ccc(C(=O)N[C@H]8CC[C@H](Oc9ccc(C#N)c(Cl)c9)CC8)nn7)CC6)nc5)ncc43)ccc21 [Compound 60, N-[4-(3-chloro-4-cyano-phenoxy)cyclohexyl]-6-[4-[2-[5-[1-(1-methyl-2-oxo-3,4-dihydroquinolin-6-yl)-3,4-dihydro-2H-1,7-naphthyridin-6-yl]-2-pyridyl]ethyl]-1-piperidyl] pyridazine-3-carboxamide] | 
9 | 0.1 to 1 nM | < 1 nM | CC(=O)N1CCc2c(c(N3CCCc4cc(-c5ccc(CCN6CCN(c7ccc(C(=O)N[C@H]8CC[C@H](Oc9ccc(C#N)c(Cl)c9)CC8)nn7)CC6)cc5)ncc43)nn2C2CCOCC2)C1 [Compound 157, 6-[4-[2-[4-[1-(5-acetyl-1-tetrahydropyran-4-yl-6,7-dihydro-4H-pyrazolo[4,3-c]pyridin-3-yl)-3,4-dihydro-2H-1,7-naphthyridin-6-yl]phenyl]ethyl]piperazin-1-yl]-N-[4-(3-chloro-4-cyano-phenoxy)cyclohexyl]pyridazine-3-carboxamide] | 
10 | ≤ 0.1 nM | < 1 nM | CC(=O)N1CCc2c(c(-c3cccc4cc(-c5ccc(CCN6CCN(c7ccc(C(=O)N[C@H]8CC[C@H](Oc9ccc(C#N)c(Cl)c9)CC8)nn7)CC6)nc5)ncc34)nn2C)C1 [Compound 30, 6-[4-[2-[5-[8-(5-acetyl-1-methyl-6,7-dihydro-4H-pyrazolo[4,3-c]pyridin-3-yl)-3-isoquinolyl]-2-pyridyl]ethyl]piperazin-1-yl]-N-[4-(3-chloro-4-cyano-phenoxy)cyclohexyl]pyridazine-3-carboxamide] | 
11 | 1 to 100 nM | 1 to 10 nM | CC(=O)N1CCc2c(c(N3CCCc4cc(-c5cscn5)c(C(F)F)cc43)nn2C2CCN([C@@H]3CCCN(c4ccc(C(=O)N[C@H]5CC[C@H](Oc6ccc(C#N)c(Cl)c6)CC5)nn4)C3)CC2)C1 [Compound 261, 6-[(3R)-3-[4-[5-acetyl-3-[7-(difluoromethyl)-6-thiazol-4-yl-3,4-dihydro-2H-quinolin-1-yl]-6,7-dihydro-4H-pyrazolo[4,3-c]pyridin-1-yl]-1-piperidyl]-1-piperidyl]-N-[4-(3-chloro-4-cyano-phenoxy)cyclohexyl]pyridazine-3-carboxamide] | 
12 | 0.1 to 1 nM | < 1 nM | CC(=O)N1CCc2c(c(-c3cccc4cc(C5CC5)ncc34)nn2C2CCN(C(=O)C3CCN(c4ccc(C(=O)N[C@H]5CC[C@H](Oc6ccc(C#N)c(Cl)c6)CC5)nn4)CC3)CC2)C1 [Compound 170, 6-[4-[4-[5-acetyl-3-(3-cyclopropyl-8-isoquinolyl)-6,7-dihydro-4H-pyrazolo[4,3-c]pyridin-1-yl]piperidine1-carbonyl]-1-piperidyl]-N-[4-(3-chloro-4-cyano-phenoxy)cyclohexyl]pyridazine-3-carboxamide] | 
13 | ≤ 0.1 nM | < 1 nM | CC(=O)N1CCc2c(c(N3CCCc4cc(-c5cnn(C)c5)c(C(F)F)cc43)nn2C2CCN(C3CC4(C3)CN(c3ccc(C(=O)N[C@H]5CC[C@H](Oc6ccc(C#N)c(Cl)c6)CC5)nn3)C4)CC2)C1 [Compound 229, 6-[6-[4-[5-acetyl-3-[7-(difluoromethyl)-6-(1-methylpyrazol-4-yl)-3,4-dihydro-2H-quinolin-1-yl]-6,7-dihydro-4H-pyrazolo[4,3-c]pyridin-1-yl]-1-piperidyl]-2-azaspiro[3.3]heptan-2-yl]-N-[4-(3-chloro-4-cyano-phenoxy)cyclohexyl]pyridazine-3-carboxamide] | 

Row | SMILES | IC50 (VCaP cells) | EC50 (AR / CBP ternary complex; [1]) | EC50 (AR / CBP ternary complex; [2])
14 | CC(=O)N1CCc2c(c(N3CCCc4cc(-c5cnn(C)c5)c(C(F)F)cc43)nn2[C@@H]2C[C@H]3CC[C@@H](C2)N3CC2CCN(c3ccc(C(=O)N[C@H]4CC[C@H](Oc5ccc(C#N)c(Cl)c5)CC4)nn3)CC2)C1 [Compound 152, 6-[4-[[(1R,5S)-3-[5-acetyl-3-[7-(difluoromethyl)-6-(1-methylpyrazol-4-yl)-3,4-dihydro-2H-quinolin-1-yl]-6,7-dihydro-4H-pyrazolo[4,3-c]pyridin-1-yl]-8-azabicyclo[3.2.1]octan-8-yl]methyl]-1-piperidyl]-N-[4-(3-chloro-4-cyano-phenoxy)cyclohexyl]pyridazine-3-carboxamide] | 0.1 to 1 nM |  | < 1 nM
15 | CC(=O)N1CCc2c(c(N3CCCc4cc(-c5cnn(C)c5)c(C(F)F)cc43)nn2[C@@H]2[C@@H]3C[C@H]2CN(CC2CCN(c4ccc(C(=O)N[C@H]5CC[C@H](Oc6ccc(C#N)c(Cl)c6)CC5)nn4)CC2)C3)C1 [Compound 149, N-[4-(3-chloro-4-cyano-phenoxy)cyclohexyl]-6-[4-[[rac-(1S,5R)-6-[5-acetyl-3-[7-(difluoromethyl)-6-(1-methylpyrazol-4-yl)-3,4-dihydro-2H-quinolin-1-yl]-6,7-dihydro-4H-pyrazolo[4,3-c]pyridin-1-yl]-3-azabicyclo[3.1.1]heptan-3-yl]methyl]-1-piperidyl]pyridazine-3-carboxamide] | 0.1 to 1 nM |  | < 1 nM
